We go through 3 compounds from PubChem BioAssay (NCI).

Structures are written as SMILES.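 Dose response: 5 concentrations. Exposure: 48 h. Format: 96-well plates. Endpoint: linear interpolation; highest concentration if not reached. TGI denotes the concentration required for complete inhibition of growth.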 Where only a bound is given, the exact number is not on record here.

What all share (assay): DTP human tumour cell line panel, 48 h
The subject of assay [1] is CAKI-1 renal.
Assay [2] concerns CCRF-CEM leukemia.
Assay [3] deals with HCC-2998 colon.
For assay [4], the system named is HOP-62 NSCLC.
Assay [5] relates to HS 578T breast.
Assay [6] relates to K-562 leukemia.
In assay [7] the test system is NCI/ADR-RES ovarian.
Assay [8] has as its system SK-MEL-2 melanoma.
Assay [9] has as its system SN12C renal.
Assay [10] relates to UACC-257 melanoma.

Take `CCOC(=O)C1(C#N)CC1`: the TGI in assay [1], in assay [2], in assay [3], in assay [4], in assay [5] and in assay [6] was above 100 µM each time. Also, the TGI in assay [7], in assay [8], in assay [9] and in assay [10] was above 100 µM in each case.
`Cc1ccc2nc(-c3ccc(C(C)(C)C)cc3)oc(=O)c2c1`: the TGI was 39.6 µM in [1]; 46.9 µM in [2]; 27.8 µM in [3]; 68.4 µM in [4]; 81.3 µM in [5]; 51 µM in assay [6]. Moreover, the TGI is 54.2 µM in assay [7], 56.7 µM in assay [8], above 100 µM in assay [9] and 46.2 µM in assay [10].
`O=C1C(c2c(O)[nH]c3ccc(Br)cc23)=Nc2ccc(Br)cc21`: the TGI in assay [1], in assay [2], in [3], in [4], in assay [5] and in assay [6] was above 100 µM in each case. Moreover, the TGI in [7], in assay [8], in assay [9] and in [10] was above 100 µM throughout.

Broadly, the TGI is the concentration giving total growth inhibition. A high value points to lower sensitivity of the cells.
